Test results: ChEMBL document CHEMBL3580659, “One-pot multicomponent synthesis of indole incorporated thiazolylcoumarins and their antibacterial, anticancer and DNA cleavage studies” (2015)

Experiments:
Format in all cases: functional
U-251 = assay: Cytotoxicity against human U251 cells assessed as cell growth level at 100 uM after 48 hrs by sulforhodamine B assay
MDA-MB-435 = assay: Cytotoxicity against human MDA-MB-435 cells assessed as cell growth level at 100 uM after 48 hrs by sulforhodamine B assay
OVCAR-8 [1] = assay: Cytotoxicity against human OVCAR8 cells assessed as cell growth level at 100 uM after 48 hrs by sulforhodamine B assay
UO-31 [2] = assay: Cytotoxicity against human UO31 cells assessed as cell growth level at 100 uM after 48 hrs by sulforhodamine B assay
SW-620 = assay: Cytotoxicity against human SW620 cells assessed as cell growth level at 10 nM after 48 hrs by sulforhodamine B assay
SK-MEL-5 = assay: Cytotoxicity against human SK-MEL-5 cells assessed as cell growth level at 10 nM after 48 hrs by sulforhodamine B assay
ACHN = assay: Cytotoxicity against human ACHN cells assessed as cell growth level at 10 nM after 48 hrs by sulforhodamine B assay
UO-31 [3] = assay: Cytotoxicity against human UO31 cells assessed as cell growth level at 10 nM after 48 hrs by sulforhodamine B assay
NCI-H322M = assay: Cytotoxicity against human NCI-H322M cells assessed as cell growth level at 100 nM after 48 hrs by sulforhodamine B assay
HCT-116 [4] = assay: Cytotoxicity against human HCT116 cells assessed as cell growth level at 100 nM after 48 hrs by sulforhodamine B assay
SF-268 [5] = assay: Cytotoxicity against human SF268 cells assessed as cell growth level at 100 nM after 48 hrs by sulforhodamine B assay
SF-295 = assay: Cytotoxicity against human SF295 cells assessed as cell growth level at 100 nM after 48 hrs by sulforhodamine B assay
SF-539 = assay: Cytotoxicity against human SF539 cells assessed as cell growth level at 100 nM after 48 hrs by sulforhodamine B assay
SNB-19 [6] = assay: Cytotoxicity against human SNB19 cells assessed as cell growth level at 100 nM after 48 hrs by sulforhodamine B assay
SK-MEL-2 = assay: Cytotoxicity against human SK-MEL-2 cells assessed as cell growth level at 100 nM after 48 hrs by sulforhodamine B assay
DU-145 [7] = assay: Cytotoxicity against human DU145 cells assessed as cell growth level at 100 nM after 48 hrs by sulforhodamine B assay
MCF7 [8] = assay: Cytotoxicity against human MCF7 cells assessed as cell growth level at 100 nM after 48 hrs by sulforhodamine B assay
MDA-MB-231 = assay: Cytotoxicity against human MDA-MB-231/ATCC cells assessed as cell growth level at 100 nM after 48 hrs by sulforhodamine B assay
HCT-15 = assay: Cytotoxicity against human HCT15 cells assessed as cell growth level at 1 uM after 48 hrs by sulforhodamine B assay
HCC 2998 = assay: Cytotoxicity against human HCC2998 cells assessed as cell growth level at 10 uM after 48 hrs by sulforhodamine B assay
SF-268 [9] = assay: Cytotoxicity against human SF268 cells assessed as cell growth level at 10 uM after 48 hrs by sulforhodamine B assay
SK-MEL-28 = assay: Cytotoxicity against human SK-MEL-28 cells assessed as cell growth level at 10 uM after 48 hrs by sulforhodamine B assay
UACC-257 = assay: Cytotoxicity against human UACC257 cells assessed as cell growth level at 10 uM after 48 hrs by sulforhodamine B assay
A498 [10] = assay: Cytotoxicity against human A498 cells assessed as cell growth level at 10 uM after 48 hrs by sulforhodamine B assay
SN12C [11] = assay: Cytotoxicity against human SN12C cells assessed as cell growth level at 10 uM after 48 hrs by sulforhodamine B assay
SNB-19 [12] = assay: Cytotoxicity against human SNB19 cells assessed as cell growth level at 1 uM after 48 hrs by sulforhodamine B assay
SN12C [13] = assay: Cytotoxicity against human SN12C cells assessed as cell growth level at 1 uM after 48 hrs by sulforhodamine B assay
DU-145 [14] = assay: Cytotoxicity against human DU145 cells assessed as cell growth level at 1 uM after 48 hrs by sulforhodamine B assay
A549 = assay: Cytotoxicity against human A549/ATCC cells assessed as cell growth level at 100 uM after 48 hrs by sulforhodamine B assay
HOP-62 = assay: Cytotoxicity against human HOP62 cells assessed as cell growth level at 100 uM after 48 hrs by sulforhodamine B assay
HCT-116 [15] = assay: Cytotoxicity against human HCT116 cells after 48 hrs by sulforhodamine B assay; details: HCT-116, 48 h
SF-268 [16] = assay: Cytotoxicity against human SF268 cells after 48 hrs by sulforhodamine B assay; details: SF-268, 48 h
HOP-92 = assay: Cytotoxicity against human HOP92 cells assessed as cell growth level at 100 uM after 48 hrs by sulforhodamine B assay
NCI-H23 = assay: Cytotoxicity against human NCI-H23 cells assessed as cell growth level at 100 uM after 48 hrs by sulforhodamine B assay
NCI-H460 = assay: Cytotoxicity against human NCI-H460 cells assessed as cell growth level at 100 uM after 48 hrs by sulforhodamine B assay
OVCAR-8 [17] = assay: Cytotoxicity against human OVCAR8 cells after 48 hrs by sulforhodamine B assay; details: OVCAR-8, 48 h
A498 [18] = assay: Cytotoxicity against human A498 cells after 48 hrs by sulforhodamine B assay; details: A498, 48 h
RXF 393 = assay: Cytotoxicity against human RXF393 cells after 48 hrs by sulforhodamine B assay; details: RXF 393, 48 h
MCF7 [19] = assay: Cytotoxicity against human MCF7 cells after 48 hrs by sulforhodamine B assay; details: MCF7, 48 h
[20] = read-out: LC50 (the source's name)
[21] = read-out: pLC50 (the source's name) (converted)

## O=c1oc2ccccc2cc1-c1csc(N/N=C/c2c[nH]c3ccccc23)n1
U-251
  Activity: -89%
MDA-MB-435
  Activity: -69%
OVCAR-8 [1]
  Activity: -8%
UO-31 [2]
  Activity: -52%
SW-620
  Activity: 98%
SK-MEL-5
  Activity: 96%
ACHN
  Activity: 99%
UO-31 [3]
  Activity: 97%
NCI-H322M
  Activity: 102%
HCT-116 [4]
  Activity: 91%
SF-268 [5]
  Activity: 88%
SF-295
  Activity: 97%
SF-539
  Activity: 88%
SNB-19 [6]
  Activity: 89%
SK-MEL-2
  Activity: 95%
DU-145 [7]
  Activity: 92%
MCF7 [8]
  Activity: 95%
MDA-MB-231
  Activity: 97%
HCT-15
  Activity: 84%
HCC 2998
  Activity: 8.49%
SF-268 [9]
  Activity: 14.73%
SK-MEL-28
  Activity: 54.83%
UACC-257
  Activity: 8.34%
A498 [10]
  Activity: 6.72%
SN12C [11]
  Activity: 0.22%
SNB-19 [12]
  Activity: 73%
SN12C [13]
  Activity: 45%
DU-145 [14]
  Activity: 80%
A549
  Activity: -29%
HOP-62
  Activity: -24%
HCT-116 [15]; read-out: GI50
  GI50: 1.6 µM
HCT-116 [15]; [20]
  CC50: 6.49 µM
HCT-116 [15]; read-out: TGI
  TGI: 3.22 µM
HCT-116 [15]; read-out: pGI50 (converted)
  GI50: 1.58 µM
HCT-116 [15]; [21]
  CC50: 6.46 µM
HCT-116 [15]; read-out: pTGI (converted)
  TGI: 3.24 µM
SF-268 [16]; read-out: GI50
  GI50: 1.93 µM
SF-268 [16]; [20]
  CC50: > 100 µM
SF-268 [16]; read-out: TGI
  TGI: 8.77 µM
SF-268 [16]; read-out: pGI50 (converted)
  GI50: 1.95 µM
SF-268 [16]; [21]
  CC50: > 100 µM
SF-268 [16]; read-out: pTGI (converted)
  TGI: 8.71 µM
HOP-92
  Activity: -27%
NCI-H23
  Activity: -17%
NCI-H460
  Activity: -94%
OVCAR-8 [17]; read-out: GI50
  GI50: 1.9 µM
OVCAR-8 [17]; [20]
  CC50: > 100 µM
OVCAR-8 [17]; read-out: TGI
  TGI: 4.56 µM
OVCAR-8 [17]; read-out: pGI50 (converted)
  GI50: 1.91 µM
OVCAR-8 [17]; [21]
  CC50: > 100 µM
OVCAR-8 [17]; read-out: pTGI (converted)
  TGI: 4.57 µM
A498 [18]; read-out: GI50
  GI50: 2.21 µM
A498 [18]; [20]
  CC50: > 100 µM
A498 [18]; read-out: TGI
  TGI: 8.2 µM
A498 [18]; read-out: pGI50 (converted)
  GI50: 2.19 µM
A498 [18]; [21]
  CC50: > 100 µM
A498 [18]; read-out: pTGI (converted)
  TGI: 8.13 µM
RXF 393; read-out: GI50
  GI50: 1.97 µM
RXF 393; [20]
  CC50: 33.9 µM
RXF 393; read-out: TGI
  TGI: 4.77 µM
RXF 393; read-out: pGI50 (converted)
  GI50: 1.95 µM
RXF 393; [21]
  CC50: 33.9 µM
RXF 393; read-out: pTGI (converted)
  TGI: 4.79 µM
MCF7 [19]; read-out: GI50
  GI50: 2.4 µM
MCF7 [19]; [20]
  CC50: > 100 µM
MCF7 [19]; read-out: TGI
  TGI: 15.5 µM
MCF7 [19]; read-out: pGI50 (converted)
  GI50: 2.4 µM
MCF7 [19]; [21]
  CC50: > 100 µM
MCF7 [19]; read-out: pTGI (converted)
  TGI: 15.5 µM
